Test results reported in patent publication US12173018B2, “Penicillin-binding protein inhibitors” (priority 2018, dated 2024).
Values after ≈ are worked out from the molar mass of the structure shown. Read-outs that look alike come from different tables or passages of the source.

Key:
E. coli PBP3 = E. coli PBP3 (Escherichia coli (strain K12), UniProt P0AD68); assay: E. coli PBP3 Bocillin-FL fluorescence polarization competition binding assay
In short: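 Purified PBP (1.5 μM final) was combined with test compound (0–1000 μM) and Bocillin-FL (fluorescent penicillin V, 0.1 μM final) in 50 mM Hepes pH 8.0, 300 mM NaCl, 5% glycerol.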

E. coli AG100 = assay: Broth microdilution MIC, E. coli AG100 (wild-type parent); format: cell-based; settings: Escherichia coli; wild-type parent E. coli AG100, broth microdilution; read-out: MIC E. coli AG100
In short: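 Starting inoculum of 5×10^5 CFU/mL, from colonies grown 3-5 h in Mueller-Hinton broth with divalent cations, added to two-fold compound dilution series.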

[1] = test system: P. aeruginosa (ΔmexAB-oprM); assay: microbe, parasite or virus in culture; format: cell-based; settings: Pseudomonas aeruginosa, read-out: MIC P. aeruginosa ΔmexAB-OprM
In short: (§1)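 MIC = lowest concentration showing no visible growth after 16-20 h at 37° C. Cation-adjusted MH broth, 2-fold serial dilutions, starting inoculum 5×10^5 CFU/mL, per CLSI methods.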

K. pneumoniae 848844 = assay: microbe, parasite or virus in culture; format: cell-based, Klebsiella pneumoniae; settings: Klebsiella pneumoniae; K. pneumoniae 848844 producing SHV-11 and KPC-2; read-out: MIC K. pneumoniae 848844
In short: as §1

N. gonorrhoeae FA1090 = assay: Liquid broth MIC, N. gonorrhoeae FA1090; format: cell-based; settings: Neisseria gonorrhoeae; N. gonorrhoeae FA1090, liquid broth; read-out: Minimum Inhibitory Concentration, N. gonorrhoeae FA1090
In short: (§2)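 Visual MIC: lowest concentration well showing no bacterial growth after 40-42 h at 36° C in 5% CO2. Inoculum 5×10^5 CFU/mL from colonies swabbed into GC broth, set by OD600; compounds in 2-fold serial dilution.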

N. gonorrhoeae FA19 = assay: Liquid broth MIC, N. gonorrhoeae FA19; format: cell-based; settings: Neisseria gonorrhoeae; N. gonorrhoeae FA19, liquid broth; read-out: Minimum Inhibitory Concentration, N. gonorrhoeae FA19
In short: as §2

[2] = fluorescence polarization competition binding with Bocillin-FL, read-out: E. coli K12 PBP3 Potency

E. coli PBP3, sequence (P0AD68 whole entry): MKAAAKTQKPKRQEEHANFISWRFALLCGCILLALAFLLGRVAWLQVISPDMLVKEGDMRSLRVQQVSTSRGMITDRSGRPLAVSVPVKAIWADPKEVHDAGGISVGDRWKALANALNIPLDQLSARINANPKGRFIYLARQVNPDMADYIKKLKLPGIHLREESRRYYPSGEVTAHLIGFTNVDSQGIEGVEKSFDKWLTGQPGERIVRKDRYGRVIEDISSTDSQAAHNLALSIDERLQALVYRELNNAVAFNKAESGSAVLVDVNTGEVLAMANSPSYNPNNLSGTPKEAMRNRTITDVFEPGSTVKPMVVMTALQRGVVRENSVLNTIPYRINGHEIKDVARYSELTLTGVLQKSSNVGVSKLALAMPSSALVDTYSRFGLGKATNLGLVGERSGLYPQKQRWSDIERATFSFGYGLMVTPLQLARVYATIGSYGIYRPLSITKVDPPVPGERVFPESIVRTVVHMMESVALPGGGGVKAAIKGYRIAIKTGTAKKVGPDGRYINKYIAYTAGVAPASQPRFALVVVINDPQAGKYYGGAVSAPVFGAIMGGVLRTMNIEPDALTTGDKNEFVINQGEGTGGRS

| Structure (SMILES) | EC50 (E. coli PBP3; [2]) [µM] | MIC (E. coli AG100) [µg/mL] | MIC [1] [µg/mL] | MIC (K. pneumoniae 848844) [µg/mL] | MIC (N. gonorrhoeae FA1090) [µg/mL] | MIC (N. gonorrhoeae FA19) [µg/mL] | EC50 (E. coli PBP3) [µM] |
| --- | --- | --- | --- | --- | --- | --- | --- |
| CCN1CCN(C(=O)NC(C(=O)N[C@H]2Cc3cccc(C(=O)O)c3OB2O)c2ncc(O)cc2Cl)C(=O)C1=O (stereo partly drawn) [Example 150, (3R)-3-(2-(4-ethyl-2,3-dioxopiperazine-1-carboxamido)-2-(3-chloro-5-hydroxypyridin-2-yl)acetamido)-2-hydroxy-3,4-dihydro-2H-benzo[e][1,2]oxaborinine-8-carboxylic acid] | < 30 | 32 to 64 | 32 to 64 | > 128 | 0.25 to 0.5 (≈ 0.447 to 0.893 µM) | 4 to 8 (≈ 7.15 to 14.3 µM) | – |
| CCN1CCN(C(=O)NC(C(=O)N[C@H]2Cc3ccc(F)c(C(=O)O)c3OB2O)c2ncc(O)cc2Cl)C(=O)C1=O (stereo partly drawn) [Example 151, (3R)-3-(2-(3-chloro-5-hydroxypyridin-2-yl)-2-(4-ethyl-2,3-dioxopiperazine-1-carboxamido)acetamido)-7-fluoro-2-hydroxy-3,4-dihydro-2H-benzo[e][1,2]oxaborinine-8-carboxylic acid] | < 30 | 32 to 64 | 8 to 16 | > 128 | 0.25 to 0.5 (≈ 0.433 to 0.865 µM) | 4 to 8 (≈ 6.92 to 13.8 µM) | – |
| CCN1CCN(C(=O)N[C@@H](C(=O)N[C@H]2Cc3ccc(F)c(C(=O)O)c3OB2O)c2ccc(O)c(F)c2)C(=O)C1=O [Example 161, (R)-3-((R)-2-(4-ethyl-2,3-dioxopiperazine-1-carboxamido)-2-(3-fluoro-4-hydroxyphenyl)acetamido)-7-fluoro-2-hydroxy-3,4-dihydro-2H-benzo[e][1,2]oxaborinine-8-carboxylic acid] | < 30 | > 128 | 8 to 16 | > 128 | < 0.125 | 1 to 2 (≈ 1.78 to 3.57 µM) | – |
| CCN1CCN(C(=O)N[C@@H](C(=O)N[C@H]2Cc3cccc(C(=O)O)c3OB2O)c2ncc(O)cc2F)C(=O)C1=O [Example 177, (R)-3-((R)-2-(4-ethyl-2,3-dioxopiperazine-1-carboxamido)-2-(3-fluoro-5-hydroxypyridin-2-yl)acetamido)-2-hydroxy-3,4-dihydro-2H-benzo[e][1,2]oxaborinine-8-carboxylic acid] | < 30 | 8 to 16 | 2 to 4 | 32 to 64 | < 0.125 | 4 to 8 (≈ 7.36 to 14.7 µM) | – |
| CCN1CCN(C(=O)NC(C(=O)N[C@H]2Cc3ccc(F)c(C(=O)O)c3OB2O)c2ccc(S(N)(=O)=O)cc2)C(=O)C1=O (stereo partly drawn) [Example 181, (3R)-3-(2-(4-ethyl-2,3-dioxopiperazine-1-carboxamido)-2-(4-sulfamoylphenyl)acetamido)-7-fluoro-2-hydroxy-3,4-dihydro-2H-benzo[e][1,2]oxaborinine-8-carboxylic acid] | – | > 128 | 8 to 16 | 32 to 64 | 1 to 2 (≈ 1.65 to 3.3 µM) | 4 to 8 (≈ 6.61 to 13.2 µM) | 30 to 500 |
| NS(=O)(=O)c1ccc(C(NC(=O)N2CCN(CCF)C(=O)C2=O)C(=O)N[C@H]2Cc3ccc(F)c(C(=O)O)c3OB2O)cc1 (stereo partly drawn) [Example 182, (3R)-7-fluoro-3-(2-(4-(2-fluoroethyl)-2,3-dioxopiperazine-1-carboxamido)-2-(4-sulfamoylphenyl)acetamido)-2-hydroxy-3,4-dihydro-2H-benzo[e][1,2]oxaborinine-8-carboxylic acid] | – | > 128 | 8 to 16 | > 128 | 1 to 2 (≈ 1.6 to 3.21 µM) | 4 to 8 (≈ 6.42 to 12.8 µM) | 30 to 500 |
| O=C(O)c1c(F)ccc2c1OB(O)[C@@H](NC(=O)C(NC(=O)N1CCN(CCF)C(=O)C1=O)c1ncc(O)cc1F)C2 (stereo partly drawn) [Example 183, (3R)-7-fluoro-3-(2-(3-fluoro-5-hydroxypyridin-2-yl)-2-(4-(2-fluoroethyl)-2,3-dioxopiperazine-1-carboxamido)acetamido)-2-hydroxy-3,4-dihydro-2H-benzo[e][1,2]oxaborinine-8-carboxylic acid] | < 30 | 8 to 16 | 32 to 64 | > 128 | 0.25 to 0.5 (≈ 0.432 to 0.863 µM) | 1 to 2 (≈ 1.73 to 3.45 µM) | – |
| CCN1CCN(C(=O)N[C@H](C(=O)N[C@H]2Cc3ccc(F)c(C(=O)O)c3OB2O)c2ccc(O)c(O)c2Cl)C(=O)C1=O [Example 188, (R)-3-((S)-2-(2-chloro-3,4-dihydroxyphenyl)-2-(4-ethyl-2,3-dioxopiperazine-1-carboxamido)acetamido)-7-fluoro-2-hydroxy-3,4-dihydro-2H-benzo[e][1,2]oxaborinine-8-carboxylic acid] | – | 8 to 16 | 0.5 to 1 | 8 to 16 | 4 to 8 (≈ 6.75 to 13.5 µM) | 16 to 32 (≈ 27 to 54 µM) | 30 to 500 |
| CCN1CCN(C(=O)N[C@@H](C(=O)N[C@H]2Cc3ccc(F)c(C(=O)O)c3OB2O)c2ccc(O)c(O)c2Cl)C(=O)C1=O [Example 189, (R)-3-((R)-2-(2-chloro-3,4-dihydroxyphenyl)-2-(4-ethyl-2,3-dioxopiperazine-1-carboxamido)acetamido)-7-fluoro-2-hydroxy-3,4-dihydro-2H-benzo[e][1,2]oxaborinine-8-carboxylic acid] | < 30 | 2 to 4 | < 0.25 | 2 to 4 | 0.25 to 0.5 (≈ 0.422 to 0.844 µM) | 1 to 2 (≈ 1.69 to 3.37 µM) | – |
| CCN1CCN(C(=O)N[C@@H](C(=O)N[C@H]2Cc3cccc(C(=O)O)c3OB2O)c2ccc(O)c(O)c2Cl)C(=O)C1=O [Example 190, (R)-3-((R)-2-(2-chloro-3,4-dihydroxyphenyl)-2-(4-ethyl-2,3-dioxopiperazine-1-carboxamido)acetamido)-2-hydroxy-3,4-dihydro-2H-benzo[e][1,2]oxaborinine-8-carboxylic acid] | – | 0.5 to 1 | < 0.25 | 0.5 to 1 | 0.25 to 0.5 (≈ 0.435 to 0.87 µM) | 4 to 8 (≈ 6.96 to 13.9 µM) | 30 to 500 |
| CCN1C[C@@H](C)N(C(=O)NC(C(=O)N[C@H]2Cc3cccc(C(=O)O)c3OB2O)c2ncc(O)cc2F)C(=O)C1=O (stereo partly drawn) [Example 191, (3R)-3-(2-((R)-4-ethyl-6-methyl-2,3-dioxopiperazine-1-carboxamido)-2-(3-fluoro-5-hydroxypyridin-2-yl)acetamido)-2-hydroxy-3,4-dihydro-2H-benzo[e][1,2]oxaborinine-8-carboxylic acid] | – | > 128 | 32 to 64 | > 128 | 0.25 to 0.5 (≈ 0.449 to 0.897 µM) | 16 to 32 (≈ 28.7 to 57.4 µM) | 30 to 500 |
| CCN1CCN(C(=O)NC(C(=O)N[C@H]2Cc3ccc(F)c(C(=O)O)c3OB2O)c2ccc(O)c(O)c2Cl)C(O)C1=O (stereo partly drawn) [Example 194, (3R)-3-(2-(2-chloro-3,4-dihydroxyphenyl)-2-(4-ethyl-2-hydroxy-3-oxopiperazine-1-carboxamido)acetamido)-7-fluoro-2-hydroxy-3,4-dihydro-2H-benzo[e][1,2]oxaborinine-8-carboxylic acid] | – | 8 to 16 | 0.5 to 1 | 8 to 16 | 4 to 8 (≈ 6.73 to 13.5 µM) | 4 to 8 (≈ 6.73 to 13.5 µM) | 30 to 500 |
| NS(=O)(=O)c1ccc(C(NC(=O)N2CCN(CCF)C(=O)C2=O)C(=O)N[C@H]2Cc3cccc(C(=O)O)c3OB2O)c(F)c1 (stereo partly drawn) [Example 204, (3R)-3-(2-(2-fluoro-4-sulfamoylphenyl)-2-(4-(2-fluoroethyl)-2,3-dioxopiperazine-1-carboxamido)acetamido)-2-hydroxy-3,4-dihydro-2H-benzo[e][1,2]oxaborinine-8-carboxylic acid] | < 30 | 32 to 64 | 8 to 16 | > 128 | 0.25 to 0.5 (≈ 0.401 to 0.802 µM) | 1 to 2 (≈ 1.6 to 3.21 µM) | – |
| CCN1CCN(C(=O)NC(C(=O)N[C@H]2Cc3cccc(C(=O)O)c3OB2O)c2nc(N)sc2F)C(=O)C1=O (stereo partly drawn) [Example 205, (3R)-3-(2-(2-amino-5-fluorothiazol-4-yl)-2-(4-ethyl-2,3-dioxopiperazine-1-carboxamido)acetamido)-2-hydroxy-3,4-dihydro-2H-benzo[e][1,2]oxaborinine-8-carboxylic acid] | < 30 | 8 to 16 | 2 to 4 | 32 to 64 | < 0.125 | < 0.125 | – |
| CCN1C[C@H](C)N(C(=O)NC(C(=O)N[C@H]2Cc3ccc(F)c(C(=O)O)c3OB2O)c2ccc(O)c(O)c2Cl)C(=O)C1=O (stereo partly drawn) [Example 206, (3R)-3-(2-(2-chloro-3,4-dihydroxyphenyl)-2-((S)-4-ethyl-6-methyl-2,3-dioxopiperazine-1-carboxamido)acetamido)-7-fluoro-2-hydroxy-3,4-dihydro-2H-benzo[e][1,2]oxaborinine-8-carboxylic acid] | < 30 | 0.5 to 1 | < 0.25 | 2 to 4 | 0.25 to 0.5 (≈ 0.412 to 0.824 µM) | 4 to 8 (≈ 6.59 to 13.2 µM) | – |
